One experiment relates to HEPG2 cell line. The experiment can be described thus: MTT in vitro cytotoxicity, HEPG2. The class given is cell-based, human. The protocol: (§1) Using the MTT test method, the in vitro cytotoxicity of our synthesized compounds at different doses ranging from […] was examined in two cell lines, HEPG2 and MCF7, to examine 50% of the cancer cells dying.
(§2) Some of the synthesized compounds were tested as anticancer activity for the IC50 against two cell lines HEPG2 and MCF7 cells according to method. All cell lines were obtained from national cancer institute, Cairo—Egypt.

Experiment [1] has as its system HCT116 (colon carcinoma human). The experiment can be described thus: one spot 100 µg/ml cytotoxicity, HCT116. The format is cell-based. The conditions noted are these: Homo sapiens, HCT-116, percent inhibition, read-out: one spot concentration inhibition, HCT116.
Experiment [2] concerns HEPG2 cells. The experiment can be described thus: Cell cycle analysis by DNA flow cytometry. The class given is cell-based, human. The text has this: After adding compound 3, we explore the growth inhibitory cell cycle mechanism of HEPG2 cell lines using DNA flow cytometry to examine the control and advancement of the cell cycle in HEPG2 cancer cells. […] When compound 3 was applied to HEPG2 cells, the cells cycled between the G0-G1 and G2/M phases (Fig. 4, Table 3). […] Compound 3 can also stop HEPG2 cells at the G0–G1% stage of the cell cycle, with an increase in the G0–G1phase fraction from 34.54 to 40.10.
The cell cycle arrests of compound 3 against HEPG2 was carried out according to Abcam method (code ab139418), (www.abcam.co.jp).
On the technique in general: A flow cytometer gives signals particle by particle.

The subject of experiment [3] is HEPG2 (human liver carcinoma). The experiment can be described thus: one spot 100 µg/ml cytotoxicity, HEPG2. The note with it: Homo sapiens, HepG2, percent inhibition, read-out: one spot concentration inhibition, HEPG2. The class given is cell-based.
Experiment [4] concerns MG-63 (human osteosarcoma). The experiment can be described thus: one spot 100 µg/ml cytotoxicity, MG-63. The class given is cell-based. The conditions noted are these: Homo sapiens, MG-63, percent inhibition, read-out: one spot concentration inhibition, MG-63.
In experiment [5] the test system is HUH7 (human liver carcinoma). The experiment can be described thus: one spot 100 µg/ml cytotoxicity, HUH7. The class given is cell-based. The conditions noted are these: Homo sapiens, Huh-7, percent inhibition, read-out: one spot concentration inhibition, HUH7.
The test system of experiment [6] is normal human skin cell line (HSF). As to the kind of experiment: one spot 100 µg/ml cytotoxicity, normal skin cell line HSF. The class given is cell-based. The conditions noted are these: Homo sapiens.
Experiment [7] concerns MCF7 (human breast carcinoma). As to the kind of experiment: one spot 100 µg/ml cytotoxicity, MCF7. The format is cell-based. The note with it: Homo sapiens, MCF7, percent inhibition, read-out: one spot concentration inhibition, MCF7.
Experiment [8] deals with A549 (human lung carcinoma). The experiment can be described thus: one spot 100 µg/ml cytotoxicity, A549. The note with it: Homo sapiens, A549, percent inhibition, read-out: one spot concentration inhibition, A549. The class given is cell-based.
Experiment [9] relates to H460 (human lung carcinoma). The experiment can be described thus: one spot 100 µg/ml cytotoxicity, H460. The class given is cell-based. The note with it: Homo sapiens, NCI-H460, percent inhibition, read-out: one spot concentration inhibition, H460.
The test system of another experiment is HSF. As to the kind of experiment: IC50 against normal cell line HSF. The class given is cell-based, human. The conditions noted are these: Homo sapiens; normal skin cell line HSF; read-out: IC50 FOR HSF ± S.D.
Experiment [10] has as its system HEPG2 cells. As to the kind of experiment: Annexin V-FITC/PI apoptosis assay. The class given is cell-based, human. The protocol: Showing a marked rise in overall apoptosis relative to the untreated control. […] HEPG2 cell death increases by 59 times following treatment with compounds 3. Therefore compound 3 has a biological mechanism that inhibits the proliferation of HEPG2 cells and has cytotoxic effects against cancer.
The Annexin-V FITC apoptosis assay of compounds 3 against HEPG2 was performed according to (BioVision Research Products (code k101-25). (www.biovision.com).

Experiment [11] has as its system CACO2 (colon carcinoma human). As to the kind of experiment: one spot 100 µg/ml cytotoxicity, CACO2. The class given is cell-based. The note with it: Homo sapiens, Caco-2, percent inhibition, read-out: one spot concentration inhibition, CACO2.
In the next experiment the test system is MCF7 cell line. The experiment can be described thus: MTT in vitro cytotoxicity, MCF7. The format is cell-based, human. The protocol:
as §1, §2

The text below walks through data of PMC11846289, “New tetrahydroisoquinolines bearing nitrophenyl group targeting HSP90 and RET enzymes: synthesis, characterization and biological evaluation” (BMC Chemistry, 2025).

By IC50 is commonly meant the midpoint of a concentration-inhibition curve.

Values after ≈ are worked out from the molar mass of the structure shown. “Also recorded” adds a separate entry of the source.

In the case of `CSc1nc(C)c2c(c1C#N)CC(C)(O)C(C(C)=O)C2c1cccc([N+](=O)[O-])c1` (stereo not drawn) [Compound 3, 7-Acetyl-4-cyano-1,6-dimethyl-6-hydroxy-3-methylthio-8-(3-nitrophenyl)−5,6,7,8-tetrahydroisoquinoline], the “Selectivity Index = IC50 of HSF/IC50 of HEPG2” value in the experiment with HEPG2 cell line (HSF vs HEPG2) stood at 1.2. The IC50 turned out to be 75 ± 0.063 µg/mL (≈ 182 µM) with HEPG2 cell line (Homo sapiens, MTT, HEPG2, read-out: IC50 for HEPG2 ± S.D); 96 µg/mL (≈ 233 µM) in the experiment on HSF; 33 ± 0.034 µg/mL (≈ 80.2 µM) with MCF7 cell line (Homo sapiens, MTT, MCF7, read-out: IC50 for MCF7 ± S.D). Besides, the inhibition at 100 µg/mL came to 67.1% in experiment [1]; 67.7% in experiment [3]; 44.3% in experiment [4]; 32.9% in [5]; 50.6% in [6] (100 µg/ml, supplement Table S1, read-out: one spot concentration inhibition, HSF); 71.5% in [7]. For the same compound, the values for the inhibition at 100 µg/mL in [8], in experiment [9] and in [11] were 50.6%, 62% and 59.2%, respectively. Also, the “cell cycle arrest phase” value in the experiment with HEPG2 cells [2] (HEPG2) was “G2/M phase; also recorded: G0-G1, G2/M phases”. In addition, in the experiment with HEPG2 cells [2] (HEPG2, 48 h at IC50 75 µg/ml, control 12.12), the “%G2/M” value is 25.67%. Besides, in the experiment with HEPG2 cells [2] (HEPG2, 48 h at IC50 75 µg/ml, control 23.51), the “%S” value stood at 22.10%. In addition, the “%G0–G1” value with HEPG2 cells [2] (HEPG2, 48 h at IC50 75 µg/ml, control 34.54) was determined as 40.1%. Also, the cytotoxicity at 100 µg/mL in experiment [6] (HSF, one spot 100 µg/ml, read-out: Inhibition percent of HSF cell line) worked out at 52%. In the experiment on HEPG2 cells [10] (HEPG2, control 0.2), the “Apoptosis Early” value came to 13.45%. The “Apoptosis Late” value in the experiment on HEPG2 cells [10] (HEPG2, control 0.31) is given as 16.78%. In the experiment with HEPG2 cells [10] (HEPG2, control 1.36), the Necrosis came to 2.96%. Also, the “Apoptosis Total” value with HEPG2 cells [10] (HEPG2, control 1.87) was determined as 33.19%. In the experiment on HEPG2 cells [10] (relative to untreated control), the “fold increase in HEPG2 cell line apoptosis” value stood at 59 fold. Besides, in the experiment on MCF7 cell line (HSF vs MCF7), the “Selectivity Index = IC50 of HSF/ IC50 of MCF7” value is on record as 2.9.
